Assay results taken from PMC4492750, “The discovery of a selective and potent A2a agonist with extended lung retention” (Pharmacology Research & Perspectives, 2015).
Converted amounts (≈) assume the structure as drawn. Where two headings read alike, the source gives them in different places.

Legend:
[1] = tested on: LPS-induced TNFα production in rat splenocytes; assay: LPS-induced TNFα production in rat mononuclear spleen cells (rTNFα splenocytes); assay type: cell-based; details: Splenocyte, LPS-stimulated TNFα release, rat splenocytes, average (SD); for Emax: read-out: rTNFα splenocytes Intrinsic activity
Method: (§1) • Human A2a and A2b receptor pharmacology: Chinese hamster ovary CHO-K1 cells stably expressing human A2a and A2b receptors were used to determine substances agonistic potency and intrinsic activity. […] The signal corresponding to adenosine at 100 μmol/L was used to define 100% intrinsic activity. • Human A3 receptor pharmacology: A3 receptor Gi coupling was measured by GTPγ ^35[S] filter assay at serial dilutions of compound using membranes from Perkin-Elmer. The signal corresponding to the maximal response of NECA at 100 μmol/L was set to 100% intrinsic activity. • Lipopolysaccharide (LPS)-induced TNFα production in primary human peripheral blood mononuclear cells (hTNFα PBMC) and rat mononuclears (rTNFα splenocytes): Human PBMC and rat mononuclear spleen cells were incubated with serial dilutions of compound and stimulated with LPS.
Procedures and assays were run in R10 buffer (RPMI 1640 Medium supplemented with GlutaMAX™ and HEPES (GIBCO-BRL), 10% fetal calf serum, penicillin and streptomycin (each 5000IU/ml)). Human PBMC were purified from heparinised blood by Ficoll separation (Ficoll, Amersham Pharmacia Biotech AB, Cat: 17-1440-03, Lot: 312170) and rat mononuclear cells were collected after rat spleen perfusion. Both cell preparations were followed by hypotonic lysis of residual erythrocytes. Serial dilutions of compounds were pre-incubated with 200 000 cells/well (96-well plate) for 45min in 37 °C (190µl). Cells were stimulated by 10µl LPS (final concentration 0.5ng/ml human and 150ng/ml rat; SIGMA Cat: L-4516, Lot: 104K4036) for 18h at 37 °C. TNFα release was measured by ELISA (^TmR&D Systems plates) according to the manufacturer’s instructions in cell free supernatant.

[2] = Plasma protein binding by equilibrium dialysis; assay type: in vitro ADME; details: male, Wistar, pH 7.4, rat plasma, 10 μmol/L, read-out: fu rat (free unbound drug in plasma)
Method: as §1
The plasma protein binding was determined in plasma from male Wistar rats at a compound concentration of 10μM by equilibrium dialysis against a phosphate buffer at pH 7.4 using a semi-permeable membrane with a molecular cut-off of 6-8KDa (Spectra/Por, Spectrum Laboratories Inc, US). The compounds were dialyzed for 18h at 37±1°C in an air incubator on an orbital shaker. The samples were analysed using LC-MS/MS.

[3] = Lipophilicity (LogD), shake flask; assay type: physicochemical; details: octanol-water, phosphate buffer pH 7.4; for logD at 10 min: 1-octanol / phosphate buffer
Method: as §1
The octanol-water partition coefficient (LogD) was measured using the shake flask method. 600µL of 1-octanol was added to a vial with 6µL of 10mM DMSO-solution of the test compound. 600µL of 10mM sodium phosphate buffer adjusted to pH 7.4 was added and equilibrium was performed by vigorous shaking for ten minutes with an Eppendorf mixer. The phases were separated by centrifugation. The samples were analysed by HPLC with UV-detection at 254nm.

[4] = In vivo pharmacokinetics in rats (i.v., oral, intratracheal); details: for Rat blood clearance: i.v.; for half-life: lung, inhaled or intranasal, intratracheal dosing, n = 2/time point, read-out: Lung t½ (terminal half-life in lung) (converted); for Kp at 24 h: other: intratracheal (i.t.), i.t., ratio of lung concentration 24 h after dose to blood Cmax after same dose, read-out: Lung/blood split
Method: Rat PK was determined after an i.v. dose of 0.1μmol/kg (approximately 50μg/kg, 1ml/kg, TEG:H2O 50:50) given via a catheter in vena jugularis. The PK after oral administration was performed at a dose of 6μmol/kg (approximately 3mg/kg, 4ml/kg, 0.5% HPMC) given by gavage. Intratracheal PK was determined at 0.03 to 0.6μmol/kg (17 to 300μg/kg, 1ml/kg, in a vehicle containing sodium chloride (8.5mg/ml), EDTA (0.1mg/ml), citric acid (0.15mg/ml), sodium citrate (0.5mg/ml) and polysorbate 80 (0.2mg/mL) in purified water). The i.t. dose was given to anaesthetized (isofluran) rats, positioned at approximately 30° angle (head up) and the compound was administered in the trachea using a modified metal cannula. Rats were put back in their cages while regaining consciousness. Serial blood sampling of 100 to 200µl was performed after i.v. and p.o. dosing at pre-defined timepoints. Blood was mixed 1:4 with purified water containing heparin (10 to 30U/ml) in order to haemolyse the blood cells, and then placed in a 96-well plate and stored at –70°C until analysed. The dilution factor was accounted for in the data analysis. After i.t. dosing, animals were euthanized with isoflurane or pentobarbital at defined timepoints after dosing, blood samples taken from the vena jugularis or arteria carotis, handled and stored as described above. The rats were bled to drain as much blood as possible from the lungs. The lungs including the trachea were carefully dissected out with all non-relevant tissue removed, placed in pre-weighed vials and weighed. The lung vials were stored at –70°C until analyzed.
Lung tissue was frozen in liquid nitrogen and homogenised using a CryoPrep pneumatic hammer. The homogenisation of the tissue and the extraction of the compound were done in 4ml Ringer solution with an Adaptive Focused Acoustic Instrument. 50µl of the supernatant was transferred to a 96-well plate. All lung, blood and plasma samples were analysed by LC-MS/MS using a selective and sensitive method. Peak areas were used in comparison to those produced by the standard curve to determine parent compound concentrations. Homogenate concentrations were adjusted to account for the sample dilutions to give tissue concentrations.

[5] = tested on: LPS-induced BAL neutrophils; assay: LPS-induced lung inflammation model, neutrophils in BAL fluid; assay type: in vivo, rat; details: data not shown
Method: The efficacy of the compound on neutrophils in BAL fluid is expressed as per cent inhibition of the full window (negative veh/veh controls vs. the positive veh/LPS controls): Inhibition (%) of LPS-induced BAL neutrophils by compound 2 was calculated using the following formula: [drawing 1] where A is the average in the group administered with vehicle and challenged with LPS; B is the average in the group administered with vehicle and challenged with saline; and C is the average in the group administered with test compound and challenged with LPS.
Animals in all efficacy studies were dosed intratracheally as described above in a buffered saline vehicle (pH 5) containing sodium chloride (8.5mg/ml), citric acid (0.28mg/ml) and sodium citrate (0.5mg/ml). The compound was dissolved in saline when given intravenously (0.9% NaCl) to the swivelled rats.
[…] Each rat was given LPS from the Pseudomona Aeruginosa bacteria (1µg/rat, 5µg/ml saline, Sigma-Aldrich, Sweden).
24 hours after the LPS challenge, rats were anaesthetized and exsanguinated via a cardiac incision. A tube was inserted and ligated to the trachea. The tube was connected to a syringe with 4ml PBS (without Ca^2+/Mg^2+) and a lavage of the whole lung was performed manually. The BAL fluid was collected individually in polyethylene tubes and kept on ice until further processed.
The BAL fluid was centrifuged and the supernatant separated from the cell pellet that was resuspended in 1.0ml of PBS. The total number of cells and cell differentia was counted in an automated cell counter and haematology analyzer (SYSMEX XT-1800iV, software for the rat BALF).

[6] = tested on: allergen-challenged Brown Norway rats; set-up: method as in Fozard et al. [2002]; details: intratracheal; ref Fozard et al. [2002]; cited from earlier work
[7] = Substance solubility in phosphate buffer; assay type: physicochemical; details: aqueous buffer, thermodynamic from solid; phosphate buffer pH 7.4, dry compound in solid state
Method: as §1
Solubility was measured in phosphate buffer at pH 7.4 using dry compounds in solid state.

[8] = molecular target: A2a (Homo sapiens, UniProt P29274); assay: Human A2a receptor pharmacology: cAMP Alphascreen in CHO-K1 cells; assay type: cell-based; set-up: expressed in transfected cells; host or cells: CHO-K1; details: average (SD); for Emax: CHO-K1, 100% = 10 μmol/L NECA, read-out: A2a human CHO-K1 cells Intrinsic activity; for EC50: cAMP generation
Method: as §1
Chinese hamster ovary CHO-K1 cells stably expressing human A2a and A2b receptors were stored as 1ml aliquots at -150 °C in freezing medium, thawed immediately prior to assay. […] Cells (10000 cells/well) were incubated with test compounds prepared as serial dilutions. Potency (EC50) and efficacy (% of maximal response) were calculated from data fitted to a 4-parameter logistic function. The signal of 10µM NECA represented the maximal cAMP response (i.e. 100% of efficacy) produced by these cells.

[9] = tested on: heart; set-up: method as in Macallum et al. [1991]; details: oral, dog study; ref Macallum et al. [1991]; cited from earlier work
[10] = set-up: method as in Mantell et al. [2009], [2010]; details: over the dose range tested; ref Mantell et al. [2009], [2010]; cited from earlier work
[11] = tested on: patients with COPD; set-up: method as in Mantell et al. [2009], [2010]; details: ref Mantell et al. [2009], [2010]; cited from earlier work
[12] = set-up: method as in Mantell et al. [2010]; details: ref Mantell et al. [2010]; cited from earlier work

Sequence of A2a (P29274 whole entry): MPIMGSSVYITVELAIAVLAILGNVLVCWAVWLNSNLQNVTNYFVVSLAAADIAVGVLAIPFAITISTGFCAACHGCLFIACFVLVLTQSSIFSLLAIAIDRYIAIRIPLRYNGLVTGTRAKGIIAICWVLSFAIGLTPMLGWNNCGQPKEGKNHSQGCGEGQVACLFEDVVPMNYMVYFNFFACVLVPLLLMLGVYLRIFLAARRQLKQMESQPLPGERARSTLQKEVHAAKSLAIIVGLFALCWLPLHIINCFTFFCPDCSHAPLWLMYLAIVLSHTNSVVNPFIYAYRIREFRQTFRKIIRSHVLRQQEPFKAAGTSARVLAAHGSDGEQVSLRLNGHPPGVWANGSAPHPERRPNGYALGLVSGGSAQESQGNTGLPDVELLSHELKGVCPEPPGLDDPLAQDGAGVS

SMILES | IC50 [1] | Emax [1] | fraction unbound at 18 h, 10 μM [2] | logD at 10 min [3] | Rat blood clearance ([4]; mean of n = 3) | half-life ([4]; rat) | Kp at 24 h ([4]; rat) | solubility [7] | Emax [8] | EC50 [8] | other results
CCNC(=O)[C@H]1O[C@@H](n2cnc3c(N)nc(NCCc4ccc(CCC(=O)O)cc4)nc32)[C@H](O)[C@@H]1O [CGS21680, 3-[4-[2-[[6-amino-9-[(2R,3R,4S,5S)-5-(ethylcarbamoyl)-3,4-dihydroxy-tetrahydrofuran-2-yl]purin-2-yl]amino]ethyl]phenyl]propanoic acid, reference compound] | 6.9 nM | 63.5% | 0.17 | < -1 | 26 mL/min per kg | 60 min | < 0.08 |  |  |  | Percentage of dose remaining in lung at 4 h ([4]; rat, single i.t. dose 300 μg/kg, 4 h): less than 1%; Pretreatment time at which maximal efficacy was seen [5]: 30 min; Effect on lung inflammation [6]: inhibited lung inflammation
CCNC(=O)[C@H]1O[C@@H](n2cnc3c(NC(CC)CC)nc(NCCNC(=O)Nc4ccncc4)nc32)[C@H](O)[C@@H]1O [Compound 1, (2S,3S,4R,5R)-N-ethyl-5-[6-(1-ethylpropylamino)-2-[2-(4-pyridylcarbamoylamino)ethylamino]purin-9-yl]-3,4-dihydroxy-tetrahydrofuran-2-carboxamide] | 3.2 nM | 53.4% | 0.2 | 2 | 65 mL/min per kg | 360 min | 1.8 | > 1000 µM | 102% | 2.4 nM | bioavailability ([4]; whole blood, 6 umol/kg, rat, oral, mean of n = 3, read-out: Rat oral F (bioavailability)): 1.4%
CCNC(=O)[C@H]1O[C@@H](n2cnc3c(NCC(c4ccccc4)c4ccccc4)nc(NCCNC(=O)Nc4cc[n+](C)cc4)nc32)[C@H](O)[C@@H]1O [Compound 3, (2S,3S,4R,5R)-5-[6-(2,2-diphenylethylamino)-2-[2-[(1-methylpyridin-1-ium-4-yl)carbamoylamino]ethylamino]purin-9-yl]-N-ethyl-3,4-dihydroxy-tetrahydrofuran-2-carboxamide] | 0.2 nM | 58% | 0.11 | -0.35 | 42 mL/min per kg | 4800 min | 1800 | 420 µM | 96.2% | 0.4 nM | Percentage of dose remaining in lung at 24 h ([4]; rat, single i.t. dose (17 and 20 μmol/kg for compounds 2 and 3 as printed in Fig. 5), 24 h): 52%
OC[C@H]1O[C@@H](n2cnc3c(NCC(c4ccccc4)c4ccccc4)ncnc32)[C@H](O)[C@@H]1O [DPEA, N-(2,2-diphenylethyl) adenosine] |  |  |  |  |  |  |  |  |  |  | Myocardial findings [9]: myocardial degeneration and necrosis
CCNC(=O)[C@H]1O[C@@H](n2cnc3c(NCC(c4ccccc4)c4ccccc4)nc(C(=O)NCCNC(=O)NC4CCN(c5ccccn5)CC4)nc32)[C@H](O)[C@@H]1O [UK-432,097, 6-(2,2-diphenylethylamino)-9-[(2R,3R,4S,5S)-5-(ethylcarba-moyl)-3,4-dihydroxy-tetrahydrofuran-2-yl]-N-[2-[[1-(2-pyridyl)-4-piperidyl]carbamoylamino]ethyl]purine-2-carboxamide, reference compound] | 2.6 nM | 60.9% | 0.014 |  | 37 mL/min per kg | 240 min | 2.7 | 12 µM (≈ 9.33 µg/mL) |  |  | LogD [3]: 3.4; Percentage of dose remaining in lung at 6 h ([4]; rat, i.t. dose 130 μg/kg, 6 h): approximately 3%; Safety in Phase I clinical study [10]: no safety limitation; Efficacy in Phase II study [11]: failed to show efficacy; Clearance [12]: rapid; Oral bioavailability [12]: low; Plasma protein binding [12]: high; solubility [12]: low
